# Laboratory results taken from patent US20150345047A1, “SYSTEMS AND METHODS FOR IDENTIFYING DRUG COMBINATIONS FOR REDUCED DRUG RESISTANCE IN CANCER TREATMENT” (Memorial Sloan Kettering Cancer Center, priority 2014, published 2015).
# Columns and labels:
# Assay type in all cases: cell-based
# [1] = system: AKTpS473; assay: Western blot IC40 of downstream effector readout; conditions: concentration inhibiting AKTpS473 readout by 40%, SkMel133
# Experimental: (§1) In total, cells were treated with 89 unique perturbations (Table 3). In paired combinations, each drug concentration was selected to inhibit the readout for the presumed target or the downstream effectors by 40% (IC40) as determined by Western Blot experiments. In single agent perturbations, each drug is applied at two different concentrations, IC40 and 2×IC40.
# [2] = system: MAPK1pT202; assay: Western blot IC40 of downstream effector readout; conditions: concentration inhibiting MAPK1pT202 readout by 40%, SkMel133
# Experimental: as §1
# [3] = system: BRD4; assay: Western blot of BRD4 level; conditions: 24 hours after treatment
# Experimental: (§2) FIGS. 6A-6E illustrate the combined targeting of c-Myc with MEK and BRAF leads to synergistic response in melanoma cells. […] The leftward shift of isocurves implies synergistic interactions between the applied perturbations. u denotes strength of in silico perturbations. […] The BRD4 level is unchanged in response to JQ1 treatment. […] C-Myc expression is targeted with BRD4 inhibitor, JQ1. […] Cell viability is measured using the resazurin assay. […] The combination index (CI) calculated using the drug dose response curves quantifies the drug interactions between JQ1, MEKi and RAFi (left panel). CI for a given level of inhibition is a measure of the fractional shift between the combination doses (C1 and C2) and the single agent's inhibitory concentration (Cx,1, Cx,2). It is formulated as CI=(C1/Cx,1)[…](C2/Cx,2). Amax is the response of melanoma cells to JQ1, MEKi and RAFi at highest doses applied (right panel). 1-Amax is the fraction of cells alive in response to highest drug dose normalized with respect to the non-drug treated condition. […] 86% of cells are in G1 state 48 hours after JQ1 treatment, while 42% of the cells are in G1 state before drug treatment (error bars: ±SEM in 3 biological replicates).
# [4] = system: SkMel133 cells; assay: Cell viability, resazurin assay; conditions: highest doses applied
# Experimental: All phenotypic measurements were made in perturbation conditions identical to those in proteomic measurements. Cell viability and cell cycle progression were measured 72 hours after drug treatment using the Resazurin assay and flow cytometry analysis respectively. The percentage of cells in the G1, G2/M, and S phases and sub-G1 fraction were recorded based on the respective distribution of DNA content in each phase.
# [5] = system: c-Myc; assay: Western blot of c-Myc expression; conditions: 24 hours after drug treatment, SkMel133
# Experimental: as §2
# First, it was postulated whether c-Myc levels in SkMel133 cells could be targeted using JQ1. […]
# [6] = system: 4EBP1pS65; assay: Western blot IC40 of downstream effector readout; conditions: concentration inhibiting 4EBP1pS65 readout by 40%, SkMel133
# Experimental: as §1
# [7] = system: GSK3pS21; assay: Western blot IC40 of downstream effector readout; conditions: concentration inhibiting GSK3pS21 readout by 40%, SkMel133
# Experimental: as §1
# [8] = system: S6pS240; assay: Western blot IC40 of downstream effector readout; conditions: concentration inhibiting S6pS240 readout by 40%, SkMel133
# Experimental: as §1
# [9] = system: P27/Kip1; assay: Western blot IC40 of downstream effector readout; conditions: concentration changing P27/Kip1 readout by 40%, SkMel133
# Experimental: as §1
# [10] = system: STAT3pY705; assay: Western blot IC40 of downstream effector readout; conditions: concentration inhibiting STAT3pY705 readout by 40%, SkMel133
# Experimental: as §1
smiles,measurement,setting,value
FC(F)c1nc2ccccc2n1-c1nc(N2CCOCC2)nc(N2CCOCC2)n1 [ZSTK474],Dose 1 (IC40),[1],0.6 µM
O=c1[nH]c2ccccc2n1C1CCN(Cc2ccc(-c3nc4cc5nc[nH]c5cc4nc3-c3ccccc3)cc2)CC1 [AKTi 1/2],Dose 1 (IC40),[1],0.005 µM
O=C(NOC[C@H](O)CO)c1ccc(F)c(F)c1Nc1ccc(I)cc1F [PD0325901],Dose 1 (IC40),[2],0.0015 µM
Cc1sc2c(c1C)C(c1ccc(Cl)cc1)=N[C@@H](CC(=O)OC(C)(C)C)c1nnc(C)n1-2 [JQ1],BRD4 level,[3],unchanged
same,"maximal effect level (Amax, response to the drugs at highest doses)",[4],10%
same,c-Myc expression level,[5],reduced
COc1ccc(C2=NC(c3ccc(Cl)cc3)C(c3ccc(Cl)cc3)N2C(=O)N2CCNC(=O)C2)c(OC(C)C)c1 (stereo not shown) [Nutlin],Dose 1 (IC40),[6],"3,000 nM"
CCCS(=O)(=O)Nc1ccc(F)c(C(=O)c2c[nH]c3ncc(Cl)cc23)c1F [PLX4720],Dose 1 (IC40),[2],0.06 µM
CC(C)(C)c1nc2c3cc[nH]c(=O)c3c3cc(F)ccc3c2[nH]1 [P6],Dose 1 (IC40),[7],0.02 µM
Cn1cc(C2=C(c3cn(CCCN)c4ccccc34)C(=O)NC2=O)c2ccccc21 [RO-31-7549],Dose 1 (IC40),[8],3.5 µM
CO[C@H]1C[C@@H]2CC[C@@H](C)[C@@](O)(O2)C(=O)C(=O)N2CCCC[C@H]2C(=O)O[C@H]([C@H](C)C[C@@H]2CC[C@@H](OC(=O)C(C)(CO)CO)[C@H](OC)C2)CC(=O)[C@H](C)/C=C(\C)[C@@H](O)[C@@H](OC)C(=O)[C@H](C)C[C@H](C)/C=C/C=C/C=C/1C [Temsirolimus],Dose 1 (IC40),[8],0.0003 µM
O=C(CCCCCCSc1ccc2ccccc2c1)NO [HNHA],Dose 1 (IC40),[9],"6,000 nM"
O=[N+]([O-])c1ccc2c(c1)S(=O)(=O)C=C2 [Stattic],Dose 1 (IC40),[10],0.6 µM
